A short description of data set [1]: Half life in dog liver microsomes. Type of data set: ADME, Canis lupus familiaris, Microsome. Background: Liver microsomes are a subcellular fraction often used to study metabolism.
A short description of data set [2]: (§1) Oral bioavailability in rat. Type of data set: ADME, organism-based. The conditions noted are these: in vivo.
A short description of data set [3]: Half life in rat liver microsomes. Type of data set: ADME, Microsome.
Data set [4] has as its target T1, 5-hydroxytryptamine receptor 6 (Homo sapiens, UniProt P50406). Nature of the data set: Displacement of [3H]LSD from human recombinant 5HT6 receptor.
Data set [5] can be described thus: Half life in mouse liver microsomes. The format is ADME, Microsome.
A short description of data set [6]: Half life in human liver microsomes. Type of data set: ADME, Microsome.
Data set [7] addresses T1, 5-hydroxytryptamine receptor 6. Nature of the data set: Antagonist activity at human 5HT6 receptor expressed in human astrocytoma cells assessed as inhibition of cAMP production. Type of data set: functional, cell-based. Background: Changes in cAMP serve as a functional read-out for many G protein-coupled receptors.
In data set [8] the target is 5-hydroxytryptamine receptor 6 (Rattus norvegicus, UniProt P31388). The data set can be described thus: Displacement of [3H]LSD from rat recombinant 5HT6 receptor. A general note: In a radioligand displacement assay an active substance lowers the binding of a labelled ligand.
The subject of data set [9] is Rattus norvegicus. Nature of the data set: AUC in po dosed rat. The format is ADME, organism-based, Plasma. The conditions noted are these: in vivo.
The test system of data set [10] is Rattus norvegicus. The description is as §1. The format is ADME, organism-based. The conditions noted are these: in vivo.
Data set [11] deals with Sodium-dependent dopamine transporter (Homo sapiens, UniProt Q01959). The conditions noted are these: 10 uM.
Description: Inhibition of DA transporter at 10 uM
Data set [12] has as its target Muscarinic acetylcholine receptor M4 (Homo sapiens) (UniProt P08173). The conditions noted are these: 10 uM.
Description: Inhibition of M4 receptor at 10 uM
For data set [13], the target named is 5-hydroxytryptamine receptor 2B (Homo sapiens, UniProt P41595). Nature of the data set: Inhibition of human 5HT2B at 10 uM.
In data set [14] the target is 5-hydroxytryptamine receptor 2A (Homo sapiens, UniProt P28223). Nature of the data set: Inhibition of human 5HT2A at 10 uM.
The target in data set [15] is 5-hydroxytryptamine receptor 1A (Homo sapiens) (UniProt P08908). Nature of the data set: Inhibition of human 5HT1A at 10 uM.
Data set [16] addresses 5-hydroxytryptamine receptor 7 (Homo sapiens) (UniProt P34969). Nature of the data set: Inhibition of human 5HT7 at 10 uM.
Data set [17] addresses 5-hydroxytryptamine receptor 1B (Rattus norvegicus) (UniProt P28564). The data set can be described thus: Inhibition of rat […] at 10 uM.
Data set [18] relates to Rattus norvegicus. Nature of the data set: Antiamnesic activity in ip dosed rat assessed as decrease in ratio of investigation duration of familiar juvenile rat administered 120 mins prior to test by social recognition test. Type of data set: functional, organism-based.
The target of data set [19] is Muscarinic acetylcholine receptor M1 (Homo sapiens) (UniProt P11229). Particulars: 10 uM.
Description: Inhibition of M1 receptor at 10 uM
Data set [20] has as its target Muscarinic acetylcholine receptor M2 (Homo sapiens) (UniProt P08172). Particulars: 10 uM.
Description: Inhibition of M2 receptor at 10 uM
For data set [21], the target named is Sodium-dependent noradrenaline transporter (Homo sapiens, UniProt P23975). Particulars: 10 uM.
Description: Inhibition of NA transporter at 10 uM
Data set [22] addresses 5-hydroxytryptamine receptor 2C (Homo sapiens) (UniProt P28335). Nature of the data set: Inhibition of human 5HT2C at 10 uM.
Data set [23] deals with 5-hydroxytryptamine receptor 3A (Homo sapiens) (UniProt P46098). Nature of the data set: Inhibition of human 5HT3 at 10 uM.
The target in data set [24] is 5-hydroxytryptamine receptor 5A (Homo sapiens) (UniProt P47898). The data set can be described thus: Inhibition of human 5HT5A at 10 uM.
Data set [25] can be described thus: Ratio of drug uptake in brain to plasma in rat at 5 mg/kg, po. The format is ADME, organism-based. Set-up: dose 5 mg/kg, route oral. The conditions noted are these: read-out: BPR.
Data set [26] has as its system Rattus norvegicus. Nature of the data set: Half life in rat at 1 mg/kg, iv. Type of data set: ADME, organism-based. More on the design: dose 1 mg/kg, route intravenous. The conditions noted are these: in vivo.
A short description of data set [27]: Oral bioavailability in rat at 5 mg/kg at 24 hrs. Type of data set: ADME, organism-based. Particulars: in vivo.
Data set [28] concerns Rattus norvegicus. Nature of the data set: Volume of distribution in rat at 1 mg/kg, iv. Set-up: dose 1 mg/kg, route intravenous. The format is ADME, organism-based. The conditions noted are these: in vivo.

Molecules are shown by their SMILES.

Sequence of 5-hydroxytryptamine receptor 6 (Rattus norvegicus, UniProt P31388) (P31388 whole entry): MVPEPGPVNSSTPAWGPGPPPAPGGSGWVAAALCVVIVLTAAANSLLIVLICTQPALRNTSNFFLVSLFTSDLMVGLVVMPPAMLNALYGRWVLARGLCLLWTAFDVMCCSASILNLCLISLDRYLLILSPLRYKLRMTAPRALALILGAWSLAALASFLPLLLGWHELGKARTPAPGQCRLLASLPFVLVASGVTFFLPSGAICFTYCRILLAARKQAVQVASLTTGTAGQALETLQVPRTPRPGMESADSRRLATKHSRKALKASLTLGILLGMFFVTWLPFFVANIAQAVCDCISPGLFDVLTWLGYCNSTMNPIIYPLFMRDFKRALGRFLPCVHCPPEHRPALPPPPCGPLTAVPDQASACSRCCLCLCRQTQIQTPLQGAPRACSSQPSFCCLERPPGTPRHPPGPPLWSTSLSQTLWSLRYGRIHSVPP
T1 sequence (P50406 whole entry): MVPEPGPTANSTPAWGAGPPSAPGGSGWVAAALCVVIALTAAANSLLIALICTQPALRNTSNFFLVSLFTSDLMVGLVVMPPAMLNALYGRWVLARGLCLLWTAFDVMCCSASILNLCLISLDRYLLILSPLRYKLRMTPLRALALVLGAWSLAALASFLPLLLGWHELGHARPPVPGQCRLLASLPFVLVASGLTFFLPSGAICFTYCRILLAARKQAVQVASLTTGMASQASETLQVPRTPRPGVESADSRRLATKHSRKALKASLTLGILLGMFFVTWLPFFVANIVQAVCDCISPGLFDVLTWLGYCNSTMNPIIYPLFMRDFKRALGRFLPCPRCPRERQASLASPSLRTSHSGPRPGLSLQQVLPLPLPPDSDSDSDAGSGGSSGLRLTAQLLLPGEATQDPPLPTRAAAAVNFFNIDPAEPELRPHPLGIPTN
Sequence of 5-hydroxytryptamine receptor 2A (P28223 whole entry): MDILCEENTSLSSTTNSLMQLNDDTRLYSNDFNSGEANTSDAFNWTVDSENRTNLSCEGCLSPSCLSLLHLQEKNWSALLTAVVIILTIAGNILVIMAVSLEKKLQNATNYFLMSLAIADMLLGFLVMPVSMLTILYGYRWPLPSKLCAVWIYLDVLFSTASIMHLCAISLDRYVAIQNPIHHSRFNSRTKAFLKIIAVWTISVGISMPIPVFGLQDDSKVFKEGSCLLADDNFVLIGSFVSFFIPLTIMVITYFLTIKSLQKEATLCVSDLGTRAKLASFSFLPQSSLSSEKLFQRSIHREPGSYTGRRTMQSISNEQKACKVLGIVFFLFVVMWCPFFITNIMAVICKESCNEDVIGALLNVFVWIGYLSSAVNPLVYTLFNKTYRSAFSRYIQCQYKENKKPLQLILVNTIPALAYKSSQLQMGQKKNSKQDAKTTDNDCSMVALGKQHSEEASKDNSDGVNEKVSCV
Sequence of Sodium-dependent dopamine transporter (Q01959 whole entry): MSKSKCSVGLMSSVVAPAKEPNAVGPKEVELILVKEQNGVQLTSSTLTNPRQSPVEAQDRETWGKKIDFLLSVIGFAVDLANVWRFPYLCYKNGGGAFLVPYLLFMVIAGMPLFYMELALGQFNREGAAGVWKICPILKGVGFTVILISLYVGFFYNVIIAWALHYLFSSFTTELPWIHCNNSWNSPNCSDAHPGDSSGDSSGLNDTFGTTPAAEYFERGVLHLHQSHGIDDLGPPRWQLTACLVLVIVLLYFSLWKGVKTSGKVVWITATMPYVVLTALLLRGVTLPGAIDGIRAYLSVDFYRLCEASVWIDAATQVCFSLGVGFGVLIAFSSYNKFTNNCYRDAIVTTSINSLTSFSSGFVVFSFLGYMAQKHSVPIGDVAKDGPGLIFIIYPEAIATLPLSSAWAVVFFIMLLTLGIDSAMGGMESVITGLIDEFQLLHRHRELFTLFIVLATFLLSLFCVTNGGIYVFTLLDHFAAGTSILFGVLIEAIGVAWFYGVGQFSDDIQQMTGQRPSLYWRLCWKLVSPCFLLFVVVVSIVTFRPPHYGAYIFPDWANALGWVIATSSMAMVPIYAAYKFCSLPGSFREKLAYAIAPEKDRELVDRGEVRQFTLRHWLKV
Sequence of 5-hydroxytryptamine receptor 1B (Rattus norvegicus) (P28564 whole entry): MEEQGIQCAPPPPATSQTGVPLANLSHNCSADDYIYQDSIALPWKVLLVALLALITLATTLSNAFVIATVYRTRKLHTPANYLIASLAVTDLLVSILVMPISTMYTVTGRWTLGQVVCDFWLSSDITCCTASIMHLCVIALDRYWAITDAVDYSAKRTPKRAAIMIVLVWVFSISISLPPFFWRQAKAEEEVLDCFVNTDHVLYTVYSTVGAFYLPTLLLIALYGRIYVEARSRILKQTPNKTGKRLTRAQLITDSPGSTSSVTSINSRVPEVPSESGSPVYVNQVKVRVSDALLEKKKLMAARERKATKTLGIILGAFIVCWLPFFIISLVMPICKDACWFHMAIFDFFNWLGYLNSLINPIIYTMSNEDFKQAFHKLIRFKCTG
Sequence of 5-hydroxytryptamine receptor 5A (Homo sapiens) (P47898 whole entry): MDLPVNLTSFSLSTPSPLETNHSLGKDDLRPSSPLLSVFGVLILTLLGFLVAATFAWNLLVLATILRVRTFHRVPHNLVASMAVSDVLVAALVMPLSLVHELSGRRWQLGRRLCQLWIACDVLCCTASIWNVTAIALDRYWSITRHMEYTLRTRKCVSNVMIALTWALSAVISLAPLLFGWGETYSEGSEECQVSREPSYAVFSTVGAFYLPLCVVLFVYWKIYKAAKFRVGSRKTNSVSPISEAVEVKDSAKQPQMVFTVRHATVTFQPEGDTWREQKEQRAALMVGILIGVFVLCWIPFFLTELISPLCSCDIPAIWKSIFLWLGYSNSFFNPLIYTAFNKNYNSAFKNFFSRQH
Sequence of Muscarinic acetylcholine receptor M4 (Homo sapiens) (P08173 whole entry): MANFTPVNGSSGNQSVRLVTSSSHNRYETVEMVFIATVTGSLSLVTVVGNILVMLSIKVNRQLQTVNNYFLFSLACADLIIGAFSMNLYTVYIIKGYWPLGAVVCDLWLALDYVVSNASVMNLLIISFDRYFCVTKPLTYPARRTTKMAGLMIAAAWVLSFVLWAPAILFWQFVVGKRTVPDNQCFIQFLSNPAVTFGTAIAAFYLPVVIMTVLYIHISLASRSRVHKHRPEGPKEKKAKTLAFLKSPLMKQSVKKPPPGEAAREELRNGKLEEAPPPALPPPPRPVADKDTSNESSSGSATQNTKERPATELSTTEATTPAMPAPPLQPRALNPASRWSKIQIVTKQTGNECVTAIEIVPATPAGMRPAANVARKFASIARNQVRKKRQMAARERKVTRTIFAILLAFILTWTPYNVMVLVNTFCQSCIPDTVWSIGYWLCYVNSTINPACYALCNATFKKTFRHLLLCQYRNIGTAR
Sequence of 5-hydroxytryptamine receptor 7 (Homo sapiens) (P34969 whole entry): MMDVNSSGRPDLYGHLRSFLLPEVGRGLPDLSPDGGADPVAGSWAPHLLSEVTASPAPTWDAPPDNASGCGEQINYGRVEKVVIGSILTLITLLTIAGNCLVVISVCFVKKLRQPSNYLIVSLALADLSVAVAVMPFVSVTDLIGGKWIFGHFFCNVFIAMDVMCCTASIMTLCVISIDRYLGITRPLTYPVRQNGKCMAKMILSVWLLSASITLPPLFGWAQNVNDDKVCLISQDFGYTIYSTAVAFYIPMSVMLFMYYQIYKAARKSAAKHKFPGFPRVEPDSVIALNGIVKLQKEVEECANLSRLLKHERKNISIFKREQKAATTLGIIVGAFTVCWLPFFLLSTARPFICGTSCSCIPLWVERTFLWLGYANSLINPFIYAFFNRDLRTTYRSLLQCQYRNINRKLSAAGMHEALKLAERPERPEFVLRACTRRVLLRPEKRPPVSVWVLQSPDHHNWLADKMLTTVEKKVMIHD
Sequence of 5-hydroxytryptamine receptor 2B (P41595 whole entry): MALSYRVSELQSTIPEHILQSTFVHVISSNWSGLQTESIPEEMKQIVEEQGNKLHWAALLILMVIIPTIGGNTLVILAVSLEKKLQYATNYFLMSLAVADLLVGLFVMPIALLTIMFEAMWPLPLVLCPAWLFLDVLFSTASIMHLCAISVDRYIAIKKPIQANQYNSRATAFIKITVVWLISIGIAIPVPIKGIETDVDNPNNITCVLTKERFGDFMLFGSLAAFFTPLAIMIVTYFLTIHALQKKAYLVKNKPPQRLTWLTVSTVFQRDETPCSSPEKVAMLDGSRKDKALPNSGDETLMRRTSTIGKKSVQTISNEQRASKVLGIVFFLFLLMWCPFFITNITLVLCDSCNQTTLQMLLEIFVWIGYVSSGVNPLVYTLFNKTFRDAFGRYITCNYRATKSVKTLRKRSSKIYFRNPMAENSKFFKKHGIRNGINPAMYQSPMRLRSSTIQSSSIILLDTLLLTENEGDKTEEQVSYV
Sequence of 5-hydroxytryptamine receptor 2C (Homo sapiens) (P28335 whole entry): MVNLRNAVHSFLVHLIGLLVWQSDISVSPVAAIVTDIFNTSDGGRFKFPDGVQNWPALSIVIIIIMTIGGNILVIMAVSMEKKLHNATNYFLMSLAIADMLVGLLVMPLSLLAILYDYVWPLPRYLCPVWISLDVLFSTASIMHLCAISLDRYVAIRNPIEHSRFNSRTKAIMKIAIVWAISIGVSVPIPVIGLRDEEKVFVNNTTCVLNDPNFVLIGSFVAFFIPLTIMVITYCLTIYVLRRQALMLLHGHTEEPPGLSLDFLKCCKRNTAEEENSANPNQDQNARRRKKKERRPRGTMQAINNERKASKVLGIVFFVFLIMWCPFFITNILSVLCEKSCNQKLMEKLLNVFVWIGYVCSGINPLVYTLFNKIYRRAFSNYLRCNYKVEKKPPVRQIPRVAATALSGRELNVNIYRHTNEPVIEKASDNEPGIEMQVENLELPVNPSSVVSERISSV

The term half-life denotes the time needed for the level to fall by half in the phase considered. High values mean slow decline, low ones rapid decline. A word on the bioavailability: it is dose-corrected exposure relative to a reference, in per cent. A high value points to much systemic uptake. A word on the Ki: it is the equilibrium dissociation constant of an inhibitor or competing ligand from its target. `Cl.O=S(=O)(c1ccccc1)c1ccc2c3c(oc2c1)CNCC3`: the half-life in data set [1] was 10 min; in [3], less than 5 min; in [5] it was less than 5 min; in data set [6], more than 40 min. For the same compound, in data set [2], the bioavailability was determined as 7%. In addition, the Ki in data set [4] was found to be 0.0029 µM.
In the case of `Cl.O=S(=O)(c1ccccc1)c1ccc2c(c1)O[C@H]1CNCC[C@@H]21` (racemic), the half-life in [1], in data set [3], in data set [5] and in data set [6] was more than 40 min each time. Besides, the bioavailability in [2] was 15%. For the same compound, the Ki in data set [4] was found to be 0.083 µM.
As usually defined, the IC50 is the concentration at which inhibition is half-maximal. As to `O=S(=O)(c1ccc2c(c1)O[C@H]1CNCC[C@@H]21)c1ccccc1F` (racemic), the IC50 in data set [7] is 0.179 µM. For the same compound, the results for the Ki in data set [4] and in data set [8] were 0.032 µM and 0.145 µM, respectively.
Take `O=S(=O)(c1ccc2c(c1)O[C@H]1CNCC[C@@H]21)c1ccccc1Cl` (racemic): the 50% inhibitory concentration (IC50) in data set [7] was determined as 0.133 µM. The figures for the Ki in data set [4] and in data set [8] were 0.038 µM and 0.206 µM, respectively.
With `O=S(=O)(c1ccc2c(c1)O[C@H]1CNCC[C@@H]21)c1ccccc1-c1ccccc1` (racemic), in [7], the IC50 came to 0.135 µM. In addition, the results for the Ki in data set [4] and in [8] were 0.015 µM and 0.136 µM, respectively.
For `O=S(=O)(c1cccc(F)c1)c1ccc2c(c1)O[C@H]1CNCC[C@@H]21` (racemic), in that order: 0.033 µM, 0.021 µM and 0.052 µM.
With `O=S(=O)(c1cccc(Cl)c1)c1ccc2c(c1)O[C@H]1CNCC[C@@H]21` (racemic), in [7], the half-inhibitory concentration (IC50) amounted to 0.027 µM. Moreover, the Ki in data set [4] amounted to 0.011 µM; in [8] it was 0.04 µM.
With `Cc1cccc(S(=O)(=O)c2ccc3c(c2)O[C@H]2CNCC[C@@H]32)c1` (racemic), in [7], the IC50 turned out to be 0.227 µM. In addition, the figures for the Ki in [4] and in [8] were 0.037 µM and 0.243 µM, respectively.
Turning to `O=S(=O)(c1cccc(C(F)(F)F)c1)c1ccc2c(c1)O[C@H]1CNCC[C@@H]21` (racemic), the half-inhibitory concentration (IC50) in data set [7] amounted to 0.357 µM. For the same compound, in data set [4], the Ki was 0.048 µM.
In the same order, the values of `COc1cccc(S(=O)(=O)c2ccc3c(c2)O[C@H]2CNCC[C@@H]32)c1` (racemic) are 0.281 µM and 0.085 µM.
On to `CC(C)Oc1cccc(S(=O)(=O)c2ccc3c(c2)O[C@H]2CNCC[C@@H]32)c1` (racemic), for which the 50% inhibitory concentration (IC50) in data set [7] was 0.306 µM. In addition, the Ki came to 0.023 µM in data set [4] and 0.156 µM in data set [8].
On to `COCCOc1cccc(S(=O)(=O)c2ccc3c(c2)O[C@H]2CNCC[C@@H]32)c1` (racemic), for which, in [4], the Ki was 0.562 µM.
With `COCCCOc1cccc(S(=O)(=O)c2ccc3c(c2)O[C@H]2CNCC[C@@H]32)c1` (racemic), in data set [4], the inhibitory constant (Ki) was found to be 0.203 µM.
Still for that read-out and setting: with `O=S(=O)(c1ccc(F)cc1)c1ccc2c(c1)O[C@H]1CNCC[C@@H]21` (racemic) the figure was 0.385 µM.
Turning to `Cc1ccc(S(=O)(=O)c2ccc3c(c2)O[C@H]2CNCC[C@@H]32)cc1` (racemic), the IC50 in data set [7] was determined as 0.245 µM. Moreover, the inhibitory constant (Ki) in data set [4] came out at 0.064 µM; in data set [8] it was 0.236 µM.
`CC(C)Oc1cc(F)cc(S(=O)(=O)c2ccc3c(c2)O[C@H]2CNCC[C@@H]32)c1` (single isomer, unassigned; enantiomer 1): in data set [4], the Ki worked out at 0.049 µM.
As a reminder, the AUC is the area under the concentration-time curve, a measure of exposure. Low values mean low exposure, high ones high exposure. Compound `Cl.O=S(=O)(c1cccc(F)c1)c1ccc2c(c1)O[C@H]1CNCC[C@@H]21` (single isomer, unassigned; enantiomer 1) yielded a bioavailability in data set [2] of less than 1%. In addition, the AUC with Rattus norvegicus [9] turned out to be 0 µg·h/mL. Moreover, the Ki in data set [4] was 0.011 µM.
In the case of `CC(C)Oc1cccc(S(=O)(=O)c2ccc3c(c2)O[C@H]2CNCC[C@@H]32)c1.Cl` (single isomer, unassigned; enantiomer 1), the F in the data set with Rattus norvegicus [10] is reported as 9%. Moreover, the exposure (AUC) with Rattus norvegicus [9] was 0.637 µg·h/mL. Further, in [4], the inhibition constant (Ki) came to 0.017 µM.
Turning to `O=S(=O)(c1cc(F)cc(F)c1)c1ccc2c(c1)O[C@H]1CNCC[C@@H]21` (single isomer, unassigned; enantiomer 1), in data set [7], the concentration for half-maximal inhibition (IC50) is 1.36 µM. Besides, the Ki in data set [4] was 0.166 µM; in data set [8], 2.18 µM.
Regarding `O=S(=O)(c1cc(F)cc(Cl)c1)c1ccc2c(c1)O[C@H]1CNCC[C@@H]21` (single isomer, unassigned; enantiomer 1), the 50% inhibitory concentration (IC50) in [7] was 0.79 µM. For the same compound, the Ki in data set [4] worked out at 0.068 µM.
For `O=S(=O)(c1ccc2c(c1)O[C@H]1CNCC[C@@H]21)c1cccc(Cl)c1Cl` (single isomer, unassigned; enantiomer 1), the half-inhibitory concentration (IC50) in [7] was 0.04 µM. Also, the Ki in data set [4] was 0.005 µM.
For `CC(C)Oc1cccc(S(=O)(=O)c2ccc3c(c2)O[C@H]2CNCC[C@@H]32)c1F` (single isomer, unassigned; enantiomer 1), the inhibition constant (Ki) in data set [4] was 0.056 µM.
In general, inhibition refers to the share of the control response that was lost under treatment. A low value points to a weak effect. With `COc1cc(OC(C)C)cc(S(=O)(=O)c2ccc3c(c2)O[C@H]2CNCC[C@@H]32)c1` (single isomer, unassigned; enantiomer 1), the inhibition in [11] is more than 50%; in data set [12] it was more than 50%; in [13], 62%; in data set [14], 83%; in data set [15], 19%; in [16], 6%. The inhibition in [17] was 16%; in [19] it was more than 50%; in data set [20], more than 50%; in [21], more than 50%; in data set [22], 71%; in [23] it was 25%. The compound further had an inhibition in data set [24] of 6%. The Activity result with Rattus norvegicus [18] is “Dose-dependent effect”.
In the case of `CC(C)Oc1cc(F)cc(S(=O)(=O)c2ccc3c(c2)O[C@H]2CNCC[C@@H]32)c1` (single isomer, unassigned; enantiomer 2), the Ki in data set [4] was found to be 0.065 µM.
For `Cl.O=S(=O)(c1cccc(F)c1)c1ccc2c(c1)O[C@H]1CNCC[C@@H]21` (single isomer, unassigned; enantiomer 2), the F in the data set on Rattus norvegicus [10] was 2%. The AUC in the data set on Rattus norvegicus [9] was 0.434 µg·h/mL. In data set [4], the inhibitory constant (Ki) was 0.085 µM.
For `CC(C)Oc1cccc(S(=O)(=O)c2ccc3c(c2)O[C@H]2CNCC[C@@H]32)c1.Cl` (single isomer, unassigned; enantiomer 2), in that order: 26%, 0.31 µg·h/mL and 0.031 µM.
Consider `O=S(=O)(c1cc(F)cc(F)c1)c1ccc2c(c1)O[C@H]1CNCC[C@@H]21` (single isomer, unassigned; enantiomer 2), for which the 50% inhibitory concentration (IC50) in [7] stood at 0.096 µM. Further, the Ki in data set [4] is 0.028 µM; in data set [8], 0.174 µM.
Consider `O=S(=O)(c1cc(F)cc(Cl)c1)c1ccc2c(c1)O[C@H]1CNCC[C@@H]21` (single isomer, unassigned; enantiomer 2), for which, in data set [7], the IC50 was 0.063 µM. For the same compound, in [4], the Ki was 0.011 µM.
In the case of `O=S(=O)(c1ccc2c(c1)O[C@H]1CNCC[C@@H]21)c1cccc(Cl)c1Cl` (single isomer, unassigned; enantiomer 2), the IC50 in data set [7] was determined as 0.006 µM. The Ki in data set [4] amounted to 0.002 µM.
In the case of `CC(C)Oc1cccc(S(=O)(=O)c2ccc3c(c2)O[C@H]2CNCC[C@@H]32)c1F` (single isomer, unassigned; enantiomer 2), the Ki in [4] is 0.021 µM.
A word on the Vd: it is a proportionality between amount in the body and measured concentration, not a real space. Turning to `O=S(=O)(c1ccccc1)c1cnc2c(N3CCNCC3)cccc2c1` [INTEPIRDINE], the Kp in data set [25] was 0.7. In the data set on Rattus norvegicus [26], this compound yielded a t1/2 of 42 min. Also, in data set [27], the bioavailability was 24%. Besides, the Vd with Rattus norvegicus [28] was determined as 5.7 L/kg.

The values above are taken from ChEMBL document CHEMBL1949541, “Discovery of 7-arylsulfonyl-1,2,3,4, 4a,9a-hexahydro-benzo[4,5]furo[2,3-c]pyridines: identification of a potent and selective 5-HT₆ receptor antagonist showing activity in rat social recognition test” (Bioorg Med Chem Lett, 2012).
